Key:
[1] = excess molar enthalpy (molar enthalpy of mixing); xn = mol fraction of the nth substance listed; settings: 100 kPa, Liquid, Flow calorimetry
[2] = 101.33 kPa, Liquid, Vibrating tube method

CC1(C)C(=O)[C@]2(C)CC[C@H]1C2 [(-)-fenchone] + CCCCCO
excess molar enthalpy [kcal/mol], [1]
Settings | 283.15 K | 298.15 K | 313.15 K | 328.15 K
x1 = 0.049 | 0.0507 | 0.0559 | 0.0588 | 0.0607
x1 = 0.099 | 0.0966 | 0.108 | 0.115 | 0.118
x1 = 0.199 | 0.179 | 0.197 | 0.207 | 0.212
x1 = 0.3 | 0.231 | 0.259 | 0.276 | 0.283
x1 = 0.397 | 0.264 | 0.299 | 0.321 | 0.331
x1 = 0.498 | 0.276 | 0.314 | 0.337 | 0.349
x1 = 0.596 | 0.269 | 0.306 | 0.329 | 0.341
x1 = 0.702 | 0.241 | 0.274 | 0.294 | 0.304
x1 = 0.803 | 0.192 | 0.216 | 0.229 | 0.236
x1 = 0.898 | 0.109 | 0.125 | 0.135 | 0.139
x1 = 0.949 | 0.0574 | 0.0645 | 0.0693 | 0.0719

CCCCO [butan-1-ol]
[2]
Settings | mass density [kg/m3]
283.15 K | 817.11
298.15 K | 805.72
313.15 K | 794.4
328.15 K | 782.11

CC1(C)C(=O)[C@]2(C)CC[C@H]1C2 [(-)-fenchone] + CCCCO
excess molar enthalpy [kcal/mol], [1]
Settings | 283.15 K | 298.15 K | 313.15 K | 328.15 K
x1 = 0.05 | 0.0509 | 0.0569 | 0.0609 | 0.0636
x1 = 0.1 | 0.0966 | 0.109 | 0.117 | 0.122
x1 = 0.203 | 0.175 | 0.194 | 0.208 | 0.217
x1 = 0.3 | 0.222 | 0.25 | 0.269 | 0.282
x1 = 0.396 | 0.255 | 0.289 | 0.313 | 0.328
x1 = 0.499 | 0.267 | 0.305 | 0.331 | 0.348
x1 = 0.603 | 0.261 | 0.299 | 0.325 | 0.341
x1 = 0.692 | 0.237 | 0.27 | 0.292 | 0.305
x1 = 0.805 | 0.184 | 0.208 | 0.222 | 0.23
x1 = 0.898 | 0.105 | 0.122 | 0.132 | 0.137
x1 = 0.95 | 0.0538 | 0.0617 | 0.0664 | 0.0686

CCCCCO [pentan-1-ol]
[2]
Settings | mass density [kg/m3]
283.15 K | 821.79
298.15 K | 810.9
313.15 K | 799.8
328.15 K | 788.82

Reference: the NIST ThermoML archive (doi:10.1016/j.jct.2018.01.005)
